# From patent publication US11420944B2, “Voltage-dependent t-type calcium channel blocker” (Nippon Chemiphar Co., Ltd., priority 2016, dated 2022)
# pIC50: −log10 of the molar value.
# Experiments:
# human Cav3.2 channels [1] = molecular target: T1, human Cav3.2 channels (Homo sapiens, UniProt O95180); assay: Intracellular calcium concentration measurement (Fluo-4 AM) in stable cells expressing human Cav3.2 channels, buffer A / buffer B; type: cell-based; details: Tables 2 to 6; buffer A, equilibrium potential of potassium −92 mV; read-out: Inhibitory action of buffer A (inactivated state)
# T1 construct: expressed in transfected cells; host or cells: HEK293 cells (ATCC No. CRL-1573), plasmid pcDNA3.1(+)
# Summary of the method: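 HEK293 cells stably expressing human Cav3.2, Fluo-4 loaded, preincubated 15 min at room temperature with compound (0.1% DMSO final) in buffer A (K+ equilibrium −92 mV) or B (−110 mV). After ionophore, KCl (83.8 or 91.8 mM) stimulus; 10 s fluorescence rise (ex 485/em 510 nm) gave % inhibition and IC50.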
# CYP3A4 = molecular target: T2, CYP3A4 (Homo sapiens, UniProt P08684); assay: Evaluation of CYP3A4 activity inhibitory action; type: in vitro ADME; details: Human CYP3A4BR EasyCYP Bactosomes, 7-Benzyloxy-4-(trifluoromethyl)-coumarin
# T2 construct: purchased Cypex, Ltd; host or cells: E. coli membranes (Bactosomes)
# Procedure: Evaluation of CYP3A4 Activity Inhibitory Action
# To a 50 mM potassium phosphate buffer solution (pH 7.4), 5 nM Human CYP3A4BR EasyCYP Bactosomes (Cypex, Ltd.), 50 μM 7-Benzyloxy-4-(trifluoromethyl)-coumarin, cofactor mix (0.0081 mM β-NADP^+, 0.4 mM G-6-P, 0.4 mM MgCl2, and 0.2 U/mL G-6-P DH(Y)), and 0.01% Pluronic F-127 were added, and the mixture was incubated for 45 minutes at 37° C. The reaction was initiated by adding the cofactor mix. After the incubation, 0.5 M Tris base/acetonitrile (20:80) was added thereto as a reaction terminating liquid, and the resulting mixture was stirred. Subsequently, the fluorescence intensity (excitation: 405 nm, emission: 535 nm) was measured. The reaction was carried out in duplicate. The results are presented as the inhibition rate at 10 μM of the test compound.
# human Cav3.2 channels [2] = molecular target: T1, human Cav3.2 channels; assay: Electrophysiological evaluation, whole-cell patch-clamp with automatic patch-clamp system; type: cell-based; details: 0.3 μM, holding potential −80 mV; read-out: Cav3.2 channel current inhibition ratio at 0.3 μM of test compound (holding potential −80 mV)
# Procedure: Electrophysiological Evaluation
# Stable cell line expressing human Cav3.2 channels, which had been produced by Test method (1) of Example 140, was seeded in a 10-cm dish using DMEM medium containing 10% FBS, and the cells were cultured for 24 hours or longer under the conditions of 37° C. and 5% CO2. The cells were detached using Accutase and were used after being suspended in ice-cold extracellular solution. The Cav3.2 channel current was measured by the Whole-cell patch-clamp method using an automatic patch-clamp system (Port-a-Patch; Nanion Technologies GmbH, EPC-10; HEKA Elektronik GmbH, Patchmaster; HEKA Elektronik GmbH) and buffers described below. Measurement of the Cav3.2 channel current was carried out at room temperature, and the measurement conditions were set as follows: holding potential: −80 mV, depolarization potential: −20 mV, depolarization time: 100 msec, and depolarization frequency: 10 sec. The Cav3.2 channel current was defined as the peak value of the inward current observed when depolarization occurred at −20 mV.
# For a test compound, a DMSO solution was diluted 1,000 times with extracellular solution, and thus a solution having an intended concentration was produced. The test compound was applied using an extracellular perfusion system (Nanion Technologies GmbH) until the Cav3.2 channel current was stabilized, and five concentrations at the maximum from the low-concentration side were cumulatively applied. The inhibition ratio of the test compound was calculated from the current value immediately before the application of the test compound and the change rate of the Cav3.2 channel current after the application of the test compound (conditions for a holding potential of −80 mV: test compound concentration of 0.3 μM, conditions for a holding potential of −100 mV: test compound concentration of 3 μM).
# Extracellular solution: 135 mM NaCl, 4 mM KCl, 1 mM MgCl2, 5 mM CaCl2, 5 mM D-Glucose, and 10 mM HEPES, pH 7.4
# Internal solution for electrode: 10 mM NaCl, 10 mM HEPES, 50 mM CsCl, 60 mM CsF, and 20 mM EGTA, pH 7.2
# T2 sequence (P08684 whole entry): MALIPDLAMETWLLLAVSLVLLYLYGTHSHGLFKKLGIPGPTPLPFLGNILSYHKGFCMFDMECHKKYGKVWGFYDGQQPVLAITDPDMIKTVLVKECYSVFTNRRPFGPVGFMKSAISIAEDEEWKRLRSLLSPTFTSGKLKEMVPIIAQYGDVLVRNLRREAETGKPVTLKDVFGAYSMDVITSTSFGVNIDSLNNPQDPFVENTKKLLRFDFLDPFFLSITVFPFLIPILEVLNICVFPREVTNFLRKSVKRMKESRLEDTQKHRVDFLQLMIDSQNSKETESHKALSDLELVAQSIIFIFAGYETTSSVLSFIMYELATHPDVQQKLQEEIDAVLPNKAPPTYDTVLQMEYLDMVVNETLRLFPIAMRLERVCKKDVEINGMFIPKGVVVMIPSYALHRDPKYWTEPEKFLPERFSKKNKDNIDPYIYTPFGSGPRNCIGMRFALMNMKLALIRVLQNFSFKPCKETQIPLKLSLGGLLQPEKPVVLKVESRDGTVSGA
# T1 sequence (O95180 whole entry): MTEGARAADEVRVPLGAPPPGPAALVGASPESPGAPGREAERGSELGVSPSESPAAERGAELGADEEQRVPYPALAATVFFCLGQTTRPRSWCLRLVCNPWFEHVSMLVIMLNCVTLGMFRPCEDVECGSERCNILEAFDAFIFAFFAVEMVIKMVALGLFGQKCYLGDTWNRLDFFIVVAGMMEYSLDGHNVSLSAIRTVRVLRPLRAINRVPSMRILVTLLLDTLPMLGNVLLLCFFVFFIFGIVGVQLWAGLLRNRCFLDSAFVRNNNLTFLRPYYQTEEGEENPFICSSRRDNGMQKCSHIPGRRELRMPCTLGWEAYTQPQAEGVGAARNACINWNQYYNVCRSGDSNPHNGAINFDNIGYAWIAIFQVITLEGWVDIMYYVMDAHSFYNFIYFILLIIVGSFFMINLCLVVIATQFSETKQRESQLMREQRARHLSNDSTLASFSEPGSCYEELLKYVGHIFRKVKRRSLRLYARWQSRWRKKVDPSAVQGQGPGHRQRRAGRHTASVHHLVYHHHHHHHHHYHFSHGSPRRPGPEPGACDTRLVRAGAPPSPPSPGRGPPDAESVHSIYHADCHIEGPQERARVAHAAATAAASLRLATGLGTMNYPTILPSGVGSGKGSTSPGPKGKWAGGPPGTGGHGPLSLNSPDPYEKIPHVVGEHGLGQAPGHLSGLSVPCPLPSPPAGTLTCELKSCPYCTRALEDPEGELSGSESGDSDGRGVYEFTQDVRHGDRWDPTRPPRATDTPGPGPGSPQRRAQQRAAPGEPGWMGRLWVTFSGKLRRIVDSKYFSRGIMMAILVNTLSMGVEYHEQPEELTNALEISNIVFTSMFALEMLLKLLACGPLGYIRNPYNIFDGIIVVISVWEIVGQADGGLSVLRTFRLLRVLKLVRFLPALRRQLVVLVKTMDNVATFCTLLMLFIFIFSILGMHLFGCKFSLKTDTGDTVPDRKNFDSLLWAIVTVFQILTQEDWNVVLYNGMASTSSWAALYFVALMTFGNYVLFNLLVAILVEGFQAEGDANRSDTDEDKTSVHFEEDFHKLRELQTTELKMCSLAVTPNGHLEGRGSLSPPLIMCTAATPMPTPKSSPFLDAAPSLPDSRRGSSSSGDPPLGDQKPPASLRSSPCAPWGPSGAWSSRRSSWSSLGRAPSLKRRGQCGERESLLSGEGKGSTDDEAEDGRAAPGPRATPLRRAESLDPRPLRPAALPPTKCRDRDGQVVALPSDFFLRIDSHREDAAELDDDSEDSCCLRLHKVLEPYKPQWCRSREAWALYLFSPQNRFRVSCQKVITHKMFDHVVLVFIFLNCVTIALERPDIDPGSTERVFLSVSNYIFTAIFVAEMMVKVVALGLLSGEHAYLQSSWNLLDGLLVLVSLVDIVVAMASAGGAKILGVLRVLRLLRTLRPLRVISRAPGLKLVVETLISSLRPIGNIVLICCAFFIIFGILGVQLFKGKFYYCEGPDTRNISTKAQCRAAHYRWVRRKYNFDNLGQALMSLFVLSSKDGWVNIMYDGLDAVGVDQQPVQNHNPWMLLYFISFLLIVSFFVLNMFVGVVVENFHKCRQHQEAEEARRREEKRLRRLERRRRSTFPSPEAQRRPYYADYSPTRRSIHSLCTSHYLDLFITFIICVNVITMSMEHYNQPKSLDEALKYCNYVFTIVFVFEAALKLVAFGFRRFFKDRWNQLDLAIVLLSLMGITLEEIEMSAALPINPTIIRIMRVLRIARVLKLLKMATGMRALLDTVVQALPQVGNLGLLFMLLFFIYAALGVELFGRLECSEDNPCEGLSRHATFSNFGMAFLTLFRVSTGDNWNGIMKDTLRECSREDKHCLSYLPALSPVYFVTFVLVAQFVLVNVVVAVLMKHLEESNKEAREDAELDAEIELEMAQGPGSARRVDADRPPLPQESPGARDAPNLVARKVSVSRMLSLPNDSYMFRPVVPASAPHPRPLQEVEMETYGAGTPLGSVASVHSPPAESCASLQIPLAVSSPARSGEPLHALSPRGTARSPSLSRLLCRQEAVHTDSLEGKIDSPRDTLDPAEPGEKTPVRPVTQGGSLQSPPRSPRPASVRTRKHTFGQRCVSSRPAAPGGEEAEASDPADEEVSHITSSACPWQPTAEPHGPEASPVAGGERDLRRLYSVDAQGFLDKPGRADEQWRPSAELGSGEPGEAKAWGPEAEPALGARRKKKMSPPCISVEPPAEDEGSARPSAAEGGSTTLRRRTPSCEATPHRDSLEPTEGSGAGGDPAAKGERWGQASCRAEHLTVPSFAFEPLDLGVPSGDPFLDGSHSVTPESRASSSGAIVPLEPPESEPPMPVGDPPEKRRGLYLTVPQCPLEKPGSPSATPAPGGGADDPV
pIC50 (human Cav3.2 channels [1]),CYP3A4 activity inhibition ratio at 10 μM of test compound (CYP3A4),inhibition at 0.3 µM (human Cav3.2 channels [2]),SMILES
5.00 to 6.00,27.4%,–,"C[C@@H](NC(=O)C1CC1c1nccn1C)c1ccc(OCC(F)(F)F)s1 (mixture of isomers) [Example 20, Trans-2-(1-methyl-1H-imidazol-2-yl)-N—((R)-1-(5-(2,2,2-trifluoroethoxy)thiophen-2-yl)ethyl)cyclopropane-1-carboxamide]"
6.00 to 7.00,16.9%,–,"C[C@@H](NC(=O)C1CC1c1c[nH]c2ccccc12)c1ccc(OCC(F)(F)F)s1 (single isomer, unassigned) [Example 21A]"
6.00 to 7.00,23.3%,–,"C[C@@H](NC(=O)C1CC1c1c[nH]c2ccccc12)c1ccc(OCC(F)(F)F)s1 (single isomer, unassigned) [Example 21B]"
6.00 to 7.00,7.0%,–,"C[C@@H](NC(=O)C1CC1c1nc(-c2ccccc2)c[nH]1)c1ccc(OCC(F)(F)F)s1 (single isomer, unassigned) [Example 31A]"
≥ 7.00,−1.1%,–,"CCn1c(C2CC2C(=O)N[C@H](C)c2ccc(OCC(F)(F)F)s2)nc2ccccc21 (single isomer, unassigned) [Example 54]"
6.00 to 7.00,23.3%,–,"CCN(CC)C(=O)c1ccc([C@@H](C)NC(=O)C2CC2c2nc3ccccc3[nH]2)s1 (stereo in doubt) [Example 32, Trans-5-((1R)-1-(2-(1H-benzo[d]imidazol-2-yl)cyclopropane-1-carboxamido)ethyl)-N,N-diethylthiophene-2-carboxamide]"
–,31.8%,–,C[C@@H](NC(=O)[C@@H]1CCN(CC(=O)Nc2ccccc2)C1)c1ccc(OCC(F)(F)F)s1.Cl [Example 17]
–,8.7%,–,"C[C@@H](NC(=O)C1CC1c1nc2ccccc2[nH]1)c1ccc(C(=O)OC(C)(C)C)s1 (stereo partly drawn) [Example 25, Trans-5-((1R)-1-(2-(1H-benzo[d]imidazol-2-yl)cyclopropane-1-carboxamido)ethyl)thiophene-2-carboxylic acid tert-butyl ester]"
–,19.6%,–,"C[C@@H](NC(=O)C1CC1c1ccc2ccccc2n1)c1ccc(OCC(F)(F)F)s1 (stereo partly drawn) [Example 34, Trans-2-(quinolin-2-yl)-N—((R)-1-(5-(2,2,2-trifluoroethoxy)thiophen-2-yl)ethyl)cyclopropane-1-carboxamide]"
6.00 to 7.00,–,36%,"C[C@@H](NC(=O)[C@H]1C[C@@H]1c1nc2ccccc2[nH]1)c1ccc2ccccc2n1 [Example 52, (1S,2S)-2-(1H-benzo[d]imidazol-2-yl)-N—((R)-1-(quinolin-2-yl)ethyl)cyclopropane-1-carboxamide]"
–,3.0%,–,"C[C@@H](NC(=O)C1CC1c1nc2cc(Cl)ccc2[nH]1)c1ccc(OCC(F)(F)F)s1 (stereo partly drawn) [Example 53, Trans-2-(5-chloro-1H-benzo[d]imidazol-2-yl)-N—((R)-1-(5-(2,2,2-trifluoroethoxy)thiophen-2-yl)ethyl)cyclopropane-1-carboxamide]"
–,−1.4%,–,"CCn1c(C2CC2C(=O)N[C@H](C)c2cnc(OCC(F)(F)F)s2)nc2ccccc21 (stereo partly drawn) [Example 57, Trans-2-(1-ethyl-1H-benzo[d]imidazol-2-yl)-N—((R)-1-(2-(2,2,2-trifluoroethoxy)thiazol-5-yl)ethyl)cyclopropane-1-carboxamide]"
6.00 to 7.00,–,34%,"C[C@@H](NC(=O)[C@H]1C[C@@H]1c1nc2ccccc2[nH]1)c1ccc(C(=O)N(C)c2ccc(F)cc2)s1 [Example 62, Trans-5-((1R)-1-(2-(1H-benzo[d]imidazol-2-yl)cyclopropane-1-carboxamido)ethyl)-N-(4-fluorophenyl)-N-methylthiophene-2-carboxamide]"
≥ 7.00,–,81%,"C[C@@H](NC(=O)[C@H]1C[C@@H]1c1nc2ccccc2[nH]1)c1cc2cc(F)ccc2s1 [Example 66, (1S,2S)-2-(1H-benzo[d]imidazol-2-yl)-N—((R)-1-(5-fluorobenzo[b]thiophen-2-yl)ethyl)cyclopropane-1-carboxamide]"
6.00 to 7.00,–,50%,"C[C@@H](NC(=O)[C@H]1C[C@@H]1c1nc2ccccc2[nH]1)c1ccc2c(c1)OC(F)(F)O2 [Example 73, (1S,2S)-2-(1H-benzo[d]imidazol-2-yl)-N—((R)-1-(2,2-difluorobenzo[d][1,3]dioxol-5-yl)ethyl)cyclopropane-1-carboxamide]"
6.00 to 7.00,–,49%,"C[C@@H](NC(=O)[C@H]1C[C@@H]1c1nc2ccccc2[nH]1)c1cc2ccccc2o1 [Example 76, (1S,2S)-2-(1H-benzo[d]imidazol-2-yl)-N—((R)-1-(benzofuran-2-yl)ethyl)cyclopropane-1-carboxamide]"
6.00 to 7.00,–,49%,"C[C@@H](NC(=O)[C@H]1C[C@@H]1c1nc2ccccc2[nH]1)c1ccc2c(c1)CCO2 [Example 78, (1S,2S)-2-(1H-benzo[d]imidazol-2-yl)-N—((R)-1-(2,3-dihydrobenzofuran-5-yl)ethyl)cyclopropane-1-carboxamide]"
≥ 7.00,–,88%,"C[C@@H](NC(=O)[C@H]1C[C@@H]1c1nc2ccccc2[nH]1)c1cc2cc(Cl)ccc2o1 [Example 82, (1S,2S)-2-(1H-benzo[d]imidazol-2-yl)-N—((R)-1-(5-chlorobenzofuran-2-yl)ethyl)cyclopropane-1-carboxamide]"
≥ 7.00,–,37%,"C[C@@H](NC(=O)[C@H]1C[C@@H]1c1nc2ccccc2[nH]1)c1cc2cc(F)cc(F)c2o1 [Example 88, (1S,2S)-2-(1H-benzo[d]imidazol-2-yl)-N—((R)-1-(5,7-difluorobenzofuran-2-yl)ethyl)cyclopropane-1-carboxamide]"
5.00 to 6.00,–,22%,"C[C@@H](NC(=O)[C@H]1C[C@@H]1c1nc2ccccc2[nH]1)c1cc2ccccn2n1 [Example 93, (1S,2S)-2-(1H-benzo[d]imidazol-2-yl)-N—((R)-1-(pyrazolo[1,5-a]pyridin-2-yl)ethyl)cyclopropane-1-carboxamide]"
≥ 7.00,–,73%,"Cc1c([C@@H](C)NC(=O)[C@H]2C[C@@H]2c2nc3ccccc3[nH]2)oc2ccc(F)cc12 [Example 101, (1S,2S)-2-(1H-benzo[d]imidazol-2-yl)-N—((R)-1-(5-fluoro-3-methylbenzofuran-2-yl)ethyl)cyclopropane-1-carboxamide]"
≥ 7.00,–,74%,"CCn1c([C@H]2C[C@@H]2C(=O)N[C@H](C)c2cc3cc(F)ccc3o2)nc2ccccc21 [Example 102, (1S,2S)-2-(1-ethyl-1H-benzo[d]imidazol-2-yl)-N—((R)-1-(5-fluorobenzofuran-2-yl)ethyl)cyclopropane-1-carboxamide]"
≥ 7.00,–,52%,"CC(NC(=O)[C@H]1C[C@@H]1c1nc2ccccc2[nH]1)c1nc2cc(F)ccc2s1 (stereo partly drawn) [Example 104, (1S,2S)-2-(1H-benzo[d]imidazol-2-yl)-N-(1-(5-fluorobenzo[d]thiazol-2-yl)ethyl)cyclopropane-1-carboxamide]"
–,55.7%,–,"C[C@@H](NC(=O)Cc1ccc(C2CC2)cc1)c1ccc(OCC(F)(F)F)cn1 [TTA-A2, reference compound]"
